pIC50: −log10 of the molar value. Where two headings read alike, the source gives them in different places.
Columns and labels:
[1] = target: T1, SCD5 (Homo sapiens, UniProt Q86SK9); assay: Growth inhibition of yeast (ole1Δ) expressing human SCD5 as the sole desaturase; type: cell-based
T1 construct: host or cells: Saccharomyces cerevisiae ole1Δ strain (W303 pdr1Δ pdr3Δ background), plasmid pRS316, TDH3 promoter
T1 sequence (Q86SK9 1-330): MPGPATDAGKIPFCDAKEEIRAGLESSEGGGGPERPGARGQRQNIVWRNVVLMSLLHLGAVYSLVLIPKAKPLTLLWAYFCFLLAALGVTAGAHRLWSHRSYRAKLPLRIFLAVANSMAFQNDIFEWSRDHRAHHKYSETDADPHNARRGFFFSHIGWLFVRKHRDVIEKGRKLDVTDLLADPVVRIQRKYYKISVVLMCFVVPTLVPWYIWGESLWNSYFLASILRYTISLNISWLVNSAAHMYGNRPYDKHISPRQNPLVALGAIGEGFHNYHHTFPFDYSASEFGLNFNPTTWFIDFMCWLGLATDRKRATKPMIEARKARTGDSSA

[2] = target: T2, SCD1 (Homo sapiens, UniProt O00767); assay: Growth inhibition of yeast (ole1Δ) expressing human SCD1 as the sole desaturase; type: cell-based
T2 construct: host or cells: Saccharomyces cerevisiae ole1Δ strain (W303 pdr1Δ pdr3Δ background), plasmid pRS316, TDH3 promoter
T2 sequence (O00767 1-359): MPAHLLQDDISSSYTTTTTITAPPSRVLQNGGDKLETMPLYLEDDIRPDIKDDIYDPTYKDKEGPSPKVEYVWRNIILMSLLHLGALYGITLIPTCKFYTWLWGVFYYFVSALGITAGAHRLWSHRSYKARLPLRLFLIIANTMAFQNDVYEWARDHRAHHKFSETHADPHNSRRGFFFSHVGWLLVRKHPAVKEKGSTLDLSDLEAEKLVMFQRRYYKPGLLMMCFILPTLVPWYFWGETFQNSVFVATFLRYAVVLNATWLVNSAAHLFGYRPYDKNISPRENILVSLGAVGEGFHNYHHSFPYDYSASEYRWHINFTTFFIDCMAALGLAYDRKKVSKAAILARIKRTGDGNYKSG

[3] = yeast strain with SCD5 plasmid, OD600 growth read at 40 h, read-out: SCD5 IC50
[4] = yeast strain with SCD1 plasmid, OD600 growth read at 40 h, read-out: SCD1 IC50

Row | Compound | pIC50 [1, 3] | pIC50 [2, 4] | pIC50 [1] | pIC50 [2]
1 | Cn1nc(NC(=O)N2CCC(NCc3ccccc3C(F)(F)F)CC2)ccc1=O [Compound 105, N-(1-methyl-6-oxo-1,6-dihydropyridazin-3-yl)-4-(2-(trifluoromethyl)benzylamino) piperidine-1-carboxamide] | < 4.35 | < 4.35 | – | –
2 | Cn1nc(NC(=O)N2CCC(Oc3cc(F)cc(F)c3)CC2)ccc1=O [Compound 79, 4-(3,5-difluorophenoxy)-N-(1-methyl-6-oxo-1,6-dihydropyridazin-3-yl)piperidine-1-carboxamide] | 6.70 | 6.32 | – | –
3 | Cn1nc(NC(=O)N2CCC(NCc3cc(F)cc(F)c3)CC2)ccc1=O [Compound 104, 4-(3,5-difluorobenzylamino)-N-(1-methyl-6-oxo-1,6-dihydropyridazin-3-yl)piperidine-1-carboxamide] | < 4.35 | < 4.35 | – | –
4 | Cn1nc(NC(=O)N2CCC(Oc3cccc(Cl)c3Cl)CC2)ccc1=O [Compound 81, 4-(2,3-dichlorophenoxy)-N-(1-methyl-6-oxo-1,6-dihydropyridazin-3-yl)piperidine-1-carboxamide] | 6.82 | 7.22 | – | –
5 | Cn1nc(CC(=O)N2CCC(Cc3cccc(Cl)c3)CC2)ccc1=O [Compound 37, 6-(2-(4-(3-chlorobenzyl)piperidin-1-yl)-2-oxoethyl)-2-methylpyridazin-3(2H)-one] | 5.36 | 4.90 | – | –
6 | Cn1nc(NC(=O)N2CCC(Oc3cccc(Cl)c3)CC2)ccc1=O [Compound 68, 4-(3-chlorophenoxy)-N-(1-methyl-6-oxo-1,6-dihydropyridazin-3-yl)piperidine-1-carboxamide] | 7.22 | 6.59 | – | –
7 | Cn1nc(OC(=O)N2CCC(Oc3cc(F)cc(F)c3)CC2)ccc1=O [Compound 108] | 5.30 | 5.05 | – | –
8 | Cn1nc(-c2nc(N3CCC(Cc4ccc(F)c(F)c4)CC3)no2)ccc1=O [Compound 116, 6-(3-(4-(3,4-difluorobenzyl)piperidin-1-yl)-1,2,4-oxadiazol-5-yl)-2-methylpyridazin-3(2H)-one] | 8.00 | 6.07 | – | –
9 | CN(c1cc(F)cc(F)c1)C1CCN(C(=O)Nc2ccc(=O)n(C)n2)CC1 [Compound 95] | 4.92 | < 4.35 | – | –
10 | Cn1nc(NC(=O)N2CCC(Cc3ccc(F)c(Cl)c3)CC2)ccc1=O [Compound 54, 4-(3-chloro-4-fluorobenzyl)-N-(1-methyl-6-oxo-1,6-dihydropyridazin-3-yl)piperidine-1-carboxamide] | 7.40 | 6.36 | – | –
11 | Cn1nc(NC(=O)N2CCC(Nc3cc(F)cc(F)c3)CC2)ccc1=O [Compound 94, 4-((3,5-difluorophenyl)amino)-N-(1-methyl-6-oxo-1,6-dihydropyridazin-3-yl)piperidine-1-carboxamide] | – | – | < 4.35 | < 4.35
12 | Cn1nc(NC(=O)N2CCC(F)(Cc3ccc(F)c(F)c3)CC2)ccc1=O [Compound 60, 4-(3,4-difluorobenzyl)-4-fluoro —N-(1-methyl-6-oxo-1,6-dihydropyridazin-3-yl)piperidine-1-carboxamide] | 5.96 | 5.41 | – | –
13 | Cn1nc(NC(=O)N2CCC[C@@H](c3cc(F)cc(F)c3)CC2)ccc1=O [Compound 32] | 4.68 | 5.14 | – | –
14 | Cn1nc(NC(=O)N2CCC(Cc3cc(F)c(F)c(C#N)c3)CC2)ccc1=O [Compound 65, 4-(3-cyano-4,5-difluorobenzyl)-N-(1-methyl-6-oxo-1,6-dihydropyridazin-3-yl)piperidine-1-carboxamide] | 5.83 | 5.09 | – | –
15 | Cn1cc(-c2nnc(N3CCC(Cc4cccc(F)c4)CC3)o2)ccc1=O [Compound 18, 5-(5-(4-(3-fluorobenzyl)piperidin-1-yl)-1,3,4-oxadiazol-2-yl)-1-methylpyridin-2(1H)-one] | 5.71 | < 4.35 | – | –
16 | Cn1nc(NC(=O)N2CCC(Cc3cc(F)cc(Cl)c3)CC2)ccc1=O [Compound 55, 4-(3-chloro-5-fluorobenzyl)-N-(1-methyl-6-oxo-1,6-dihydropyridazin-3-yl)piperidine-1-carboxamide] | 7.70 | 6.80 | – | –
17 | Cn1nc(NC(=O)N2CCC(F)(Cc3cc(F)cc(F)c3)CC2)ccc1=O [Compound 59, 4-(3,5-difluorobenzyl)-4-fluoro —N-(1-methyl-6-oxo-1,6-dihydropyridazin-3-yl)piperidine-1-carboxamide] | 4.96 | < 4.35 | – | –
18 | O=C(Cc1ccc(=O)[nH]n1)N1CCC(Oc2cccc(Cl)c2)CC1 [Compound 36, 6-(2-(4-(3-chlorophenoxy)piperidin-1-yl)-2-oxoethyl)pyridazin-3(2H)-one] | 5.27 | 4.59 | – | –
19 | Cn1cc(NC(=O)N2CCC(Cc3ccc(F)c(F)c3)CC2)ccc1=O [Compound 7] | 5.30 | < 4.35 | – | –

Reference: patent US20250034125A1, “COMPOUNDS AND USES THEREOF” (JANSSEN PHARMACEUTICA NV, priority 2019, published 2025)
